From ChEMBL document CHEMBL1133257, “Quinolones as gonadotropin releasing hormone (GnRH) antagonists: simultaneous optimization of the C(3)-aryl and C(6)-substituents” (Bioorg Med Chem Lett, 2000)
Several values for one entry are separate records, joined by “and”; a condition that tells them apart may be missing. Equal values may be shown once.

Assays:
[1] = biological target: T1, Gonadotropin-releasing hormone receptor (Rattus norvegicus, UniProt P30969); assay: Binding affinity to Gonadotropin-releasing hormone receptor (GnRHr) in rat pituitary cells
T1 sequence (P30969 whole entry): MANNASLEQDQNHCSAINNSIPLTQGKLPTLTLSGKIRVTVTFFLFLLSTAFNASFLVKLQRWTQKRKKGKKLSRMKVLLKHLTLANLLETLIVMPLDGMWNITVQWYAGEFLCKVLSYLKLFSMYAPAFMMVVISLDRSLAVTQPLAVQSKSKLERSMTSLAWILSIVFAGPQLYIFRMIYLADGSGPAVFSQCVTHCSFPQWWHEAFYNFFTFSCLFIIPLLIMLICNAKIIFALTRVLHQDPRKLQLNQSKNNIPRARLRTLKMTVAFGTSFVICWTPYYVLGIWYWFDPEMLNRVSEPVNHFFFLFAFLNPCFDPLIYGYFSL

[2] = biological target: T1, Gonadotropin-releasing hormone receptor; assay: Compound was evaluated for its antagonism in rat primary pituitary cell assay (rLH); type: functional, cell-based, Pituitary gland cell
[3] = biological target: T2, Gonadotropin-releasing hormone receptor (Homo sapiens, UniProt P30968); assay: Inhibition of recombinant human Gonadotropin-releasing hormone receptor
T2 sequence (P30968 whole entry): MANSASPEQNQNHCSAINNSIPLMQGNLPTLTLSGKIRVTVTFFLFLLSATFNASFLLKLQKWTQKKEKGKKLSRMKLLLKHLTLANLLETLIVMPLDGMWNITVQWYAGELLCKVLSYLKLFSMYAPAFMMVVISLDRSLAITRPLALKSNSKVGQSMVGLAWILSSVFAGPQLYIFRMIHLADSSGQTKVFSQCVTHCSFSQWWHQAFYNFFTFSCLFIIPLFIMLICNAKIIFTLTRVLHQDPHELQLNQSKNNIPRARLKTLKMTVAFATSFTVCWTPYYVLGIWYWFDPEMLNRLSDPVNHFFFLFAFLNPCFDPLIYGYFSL

[4] = biological target: T1, Gonadotropin-releasing hormone receptor; assay: Compound was evaluated for its inhibitory activity against rat pituitary Gonadotropin-releasing hormone receptor
[5] = Compound was evaluated for its antagonism in CHO cells expressing the human receptor (hPI); type: functional, cell-based

| Structure (SMILES) | IC50 [1] [nM] | also measured |
| --- | --- | --- |
| Cc1cc(C)cc(-c2c(O)nc3cc(Cl)c(NC(=O)Nc4ccccn4)cc3c2OCCC2CCCCN2)c1 (stereo not drawn) | 15 | IC50 [2]: 463 nM |
| Cc1cc(C)cc(-c2c(O)nc3cc(Cl)c(NC(=O)Nc4ncccn4)cc3c2OCCC2CCCCN2)c1 (stereo not drawn) | 6 |  |
| Cc1cc(C)cc(-c2c(O)nc3cc(Cl)c(NC(=O)c4cnccn4)cc3c2OCCC2CCCCN2)c1 (stereo not drawn) | 1.8 | IC50 [2]: 1920 nM; IC50 [3]: 10 nM |
| Cc1cc(C)cc(-c2c(O)nc3cc(Cl)c(NC(=O)NC4CC4)cc3c2OCCC2CCCCN2)c1 (stereo not drawn) | 0.8 | IC50 [2]: 375 nM and 682 nM; IC50 [4]: 1.1 nM; IC50 [5]: 12 nM and 5 nM |
| Cc1cc(C)cc(-c2c(OCCC3CCCCN3)c3cc(NC(=O)Nc4ccccc4)c(Cl)cc3[nH]c2=O)c1 (stereo not drawn) | 10 | IC50 [2]: 3300 nM |
| Cc1cc(C)cc(-c2c(OCC[C@@H]3CCCCN3)c3cc(NC(=O)NC4CC4)c(Cl)cc3[nH]c2=O)c1 |  | IC50 [3]: 2.3 nM |
| Cc1cc(C)cc(-c2c(OCC[C@@H]3CCCCN3)c3cc(NC(=O)Nc4cnccn4)c(Cl)cc3[nH]c2=O)c1 |  | IC50 [3]: 1.1 nM |
| Cc1cc(C)cc(-c2c(O)nc3cc(Cl)c(NC(=O)Nc4cncnc4)cc3c2OCC[C@@H]2CCCCN2)c1 |  | IC50 [3]: 57 nM; IC50 [5]: 897 nM |
| Cc1cc(C)cc(-c2c(O)nc3cc(Cl)c(CC(=O)Nc4ccncn4)cc3c2OCCC2CCCCN2)c1 (stereo not drawn) | 7.9 | IC50 [2]: 2500 nM; IC50 [5]: 227 nM |
| O=C(Nc1cc2c(OCCC3CCCCN3)c(-c3ccc4ccccc4c3)c(=O)[nH]c2cc1Cl)NC1CC1 (stereo not drawn) | 68 |  |
| O=C(Nc1ccncn1)c1cc2c(OCC[C@@H]3CCCCN3)c(-c3ccc(Cl)c(Cl)c3)c(O)nc2cc1Cl |  | IC50 [3]: 1 nM; IC50 [5]: 7.7 nM |
| O=C(Nc1cc2c(OCCC3CCCCN3)c(-c3ccc(Cl)c(Cl)c3)c(O)nc2cc1Cl)NC1CC1 (stereo not drawn) | 18 |  |
| O=C(Nc1ccncn1)c1cc2c(OCC[C@@H]3CCCCN3)c(-c3cc(Cl)cc(Cl)c3)c(O)nc2cc1Cl |  | IC50 [3]: 1.1 nM; IC50 [5]: 8.5 nM |
| Cc1cc(C)cc(-c2c(O)nc3cc(Cl)c(NC(=O)c4cnccn4)cc3c2OCC[C@@H]2CCCCN2)c1 |  | IC50 [3]: 2 nM; IC50 [5]: 23 nM |
| Cc1cc(C)cc(-c2c(OCC[C@@H]3CCCCN3)c3cc(NC(=O)Nc4ccncn4)c(Cl)cc3[nH]c2=O)c1 |  | IC50 [3]: 1.8 nM |
| Cc1cc(-c2c(O)nc3cc(Cl)c(C(=O)Nc4ccncn4)cc3c2OCC[C@@H]2CCCCN2)ccc1I |  | IC50 [3]: 0.5 nM; IC50 [5]: 7.1 nM |
| Cc1cc(-c2c(O)nc3cc(Cl)c(C(=O)Nc4ccncn4)cc3c2OCC[C@@H]2CCCCN2)cc(C)c1C |  | IC50 [3]: 0.3 nM; IC50 [5]: 2.2 nM |
| O=C(Nc1ccncn1)c1cc2c(OCC[C@@H]3CCCCN3)c(-c3ccc(Cl)s3)c(O)nc2cc1Cl |  | IC50 [3]: 3.9 nM; IC50 [5]: 53 nM |
| Cc1cc(C)cc(-c2c(O)nc3cc(Cl)c(NC(=O)Nc4cccnc4)cc3c2OCCC2CCCCN2)c1 (stereo not drawn) | 20 | IC50 [2]: 1300 nM |
| O=C(Nc1ccncn1)c1cc2c(OCC[C@@H]3CCCCN3)c(-c3ccc4c(c3)CCC4)c(O)nc2cc1Cl |  | IC50 [3]: 0.7 nM; IC50 [5]: 16 nM |
| O=[N+]([O-])c1cc2c(OCCC3CCCCN3)c(-c3ccc(-c4ccccc4)c(Cl)c3)c(O)nc2cc1Cl (stereo not drawn) | 900 |  |
| CC(=O)OCc1cc(C)cc(-c2c(O)nc3cc(Cl)c([N+](=O)[O-])cc3c2OCCC2CCCCN2)c1 (stereo not drawn) | 45 |  |
| Cc1ccc(-c2c(O)nc3cc(Cl)c(C(=O)Nc4ccncn4)cc3c2OCC[C@@H]2CCCCN2)cc1C |  | IC50 [3]: 0.7 nM; IC50 [5]: 6.5 nM |
| Cc1cc(C)cc(-c2c(O)nc3cc(Cl)c(NC(=O)c4cncnc4)cc3c2OCC[C@@H]2CCCCN2)c1 | 25 | IC50 [5]: 225 nM |
| Cc1cc(C)cc(-c2c(O)nc3cc(Cl)c(NC(=O)Nc4ccncc4)cc3c2OCCC2CCCCN2)c1 (stereo not drawn) | 40 |  |
| Cc1cc(C)cc(-c2c(O)nc3cc(Cl)c(NC(=O)Nc4cnccn4)cc3c2OCCC2CCCCN2)c1 (stereo not drawn) | 0.3 | IC50 [2]: 56 nM; IC50 [5]: 9 nM |
| Cc1cc(C)cc(-c2c(OCCC3CCCCN3)c3cc(NC(=O)Nc4ccncn4)c(Cl)cc3[nH]c2=O)c1 (stereo not drawn) | 0.6 | IC50 [2]: 235 nM and 52 nM; IC50 [4]: 0.4 nM |

Continued, in another order:

| IC50 [1] [nM] | Structure (SMILES) | also measured |
| --- | --- | --- |
| 360 | O=c1[nH]c2cc(Cl)c([N+](=O)[O-])cc2c(OCCC2CCCCN2)c1-c1ccccc1Cl (stereo not drawn) |  |
| 71 | Cc1cc(CC(N)=O)cc(-c2c(O)nc3cc(Cl)c([N+](=O)[O-])cc3c2OCCC2CCCCN2)c1 (stereo not drawn) |  |
| 29 | O=[N+]([O-])c1cc2c(OCCC3CCCCN3)c(-c3ccc(Cl)c(Cl)c3)c(O)nc2cc1Cl (stereo not drawn) |  |
| 600 | COc1ccc(-c2c(O)nc3cc(Cl)c([N+](=O)[O-])cc3c2OCCC2CCCCN2)cc1OC (stereo not drawn) |  |
| 71 | O=c1[nH]c2cc(Cl)c([N+](=O)[O-])cc2c(OCCC2CCCCN2)c1-c1cc(C(F)(F)F)cc(C(F)(F)F)c1 (stereo not drawn) |  |
| 18 | Cc1ccc(-c2c(OCCC3CCCCN3)c3cc([N+](=O)[O-])c(Cl)cc3[nH]c2=O)cc1C (stereo not drawn) |  |
| 900 | O=c1[nH]c2cc(Cl)c([N+](=O)[O-])cc2c(OCCC2CCCCN2)c1-c1ccsc1 (stereo not drawn) |  |
| 18 | Cc1cc(CC#N)cc(-c2c(O)nc3cc(Cl)c([N+](=O)[O-])cc3c2OCCC2CCCCN2)c1 (stereo not drawn) |  |
| 53 | O=[N+]([O-])c1cc2c(OCCC3CCCCN3)c(-c3cccc(F)c3)c(O)nc2cc1Cl (stereo not drawn) |  |
| 24 | O=c1[nH]c2cc(Cl)c([N+](=O)[O-])cc2c(OCCC2CCCCN2)c1-c1cc(Cl)cc(Cl)c1 (stereo not drawn) |  |
| 200 | CC(C)(C)c1ccc(-c2c(OCCC3CCCCN3)c3cc([N+](=O)[O-])c(Cl)cc3[nH]c2=O)cc1 (stereo not drawn) |  |
| 23 | O=c1[nH]c2cc(Cl)c([N+](=O)[O-])cc2c(OCCC2CCCCN2)c1-c1ccc(Cl)s1 (stereo not drawn) |  |
| 100 | O=[N+]([O-])c1cccc(-c2c(O)nc3cc(Cl)c([N+](=O)[O-])cc3c2OCCC2CCCCN2)c1 (stereo not drawn) |  |
| 27 | Cc1cccc(-c2c(O)nc3cc(Cl)c([N+](=O)[O-])cc3c2OCCC2CCCCN2)c1 (stereo not drawn) |  |
| 40 | O=[N+]([O-])c1cc2c(OCCC3CCCCN3)c(-c3cccc(Br)c3)c(O)nc2cc1Cl (stereo not drawn) |  |
| 40 | COc1ccc(-c2c(OCCC3CCCCN3)c3cc([N+](=O)[O-])c(Cl)cc3[nH]c2=O)cc1C (stereo not drawn) |  |
| 40 | O=c1[nH]c2cc(Cl)c([N+](=O)[O-])cc2c(OCCC2CCCCN2)c1-c1cccc(Cl)c1 (stereo not drawn) |  |
| 400 | Cc1ccc(-c2c(O)nc3cc(Cl)c([N+](=O)[O-])cc3c2OCCC2CCCCN2)c(C)c1 (stereo not drawn) |  |
| 410 | O=c1[nH]c2cc(Cl)c([N+](=O)[O-])cc2c(OCCC2CCCCN2)c1-c1ccccc1 (stereo not drawn) |  |
| 6 | O=C(Nc1cc2c(OCCC3CCCCN3)c(-c3cccc(Br)c3)c(=O)[nH]c2cc1Cl)NC1CC1 (stereo not drawn) |  |
| 270 | CCN(CC)Cc1cc(C)cc(-c2c(OCCC3CCCCN3)c3cc([N+](=O)[O-])c(Cl)cc3[nH]c2=O)c1 (stereo not drawn) |  |
| 53 | O=c1[nH]c2cc(Cl)c([N+](=O)[O-])cc2c(OCCC2CCCCN2)c1-c1ccc2ccccc2c1 (stereo not drawn) |  |
| 160 | O=c1[nH]c2cc(Cl)c([N+](=O)[O-])cc2c(OCCC2CCCCN2)c1-c1ccc(Cl)cc1 (stereo not drawn) |  |
| 220 | O=c1[nH]c2cc(Cl)c([N+](=O)[O-])cc2c(OCCC2CCCCN2)c1-c1cccs1 (stereo not drawn) |  |
| 63 | Cc1cc(-c2c(O)nc3cc(Cl)c([N+](=O)[O-])cc3c2OCCC2CCCCN2)cc(C(C)O)c1 (stereo not drawn) |  |
| 6 | Cc1ccc(-c2c(OCCC3CCCCN3)c3cc(NC(=O)NC4CC4)c(Cl)cc3[nH]c2=O)cc1C (stereo not drawn) |  |
| 23 | Cc1cccc(-c2c(OCCC3CCCCN3)c3cc(NC(=O)NC4CC4)c(Cl)cc3[nH]c2=O)c1 (stereo not drawn) |  |
